Assay results published in patent US20250367084A1, “Micellar Composition” (Phytoceutical Limited, priority 2022, published 2025).

Columns and labels:
[1] = cited from earlier work
[2] = tested on: adult human dermal fibroblast (HDFa) cells; test: Cytotoxicity of retinol (Presto Blue / WST-1); format: cell-based; conditions: 24 h exposure
Method: The cytotoxicity of retinol was determined.
Experiment 1: A solution of retinol (20 mg/mL) in ethanol (absolute) was prepared. The solution was diluted to 2 mg/mL, forming a light yellow emulsion. The emulsion was diluted in optiMem to provide concentrations of 5, 2.5, 1.25, 0.625 and 0.31 μg/mL retinol. Untreated and detergent controls were included for comparison. Using a Presto Blue assay, adult human dermal fibroblast (HDFa) cells (5 k per well) were exposed to the solutions for 24 h.
Experiment 2: A solution of retinol (20 mg/mL) in 1,2-propanediol was prepared. The solution was diluted to 2 mg/mL, forming an off-white emulsion. The emulsion was diluted in optiMem to provide concentrations of 10, 5, 2.5, 1.25, 0.625 and 0.31 μg/mL retinol. Untreated and detergent controls were included for comparison. Using a WST-1 probe, HDFa cells (5 k per well) were exposed to the solutions for 24 h.
Experiment 3: A solution of retinol (20 mg/mL) in ethanol (absolute) was prepared. The solution was diluted to 2 mg/mL, forming an light yellow emulsion. The emulsion was diluted in optiMem to provide concentrations of 10, 5, 2.5, 1.25, 0.625 and 0.31 μg/mL retinol. Untreated and detergent controls were included for comparison. Using a WST-1 probe, HDFa cells (5 k per well) were exposed to the solutions for 24 h.

Row | SMILES | log P [1] | concentration at which retinol is cytotoxic to the HDFa cell line ([2]; 5 k cells per well) [ng/mL] | cytotoxicity at concentration below 10 μg/mL ([2]; concentration below 10 μg/mL)
1 | C=C(C)[C@@H]1CCC(C)=C[C@H]1c1c(O)cc(CCCCC)cc1O [CBD, cannabidiol] | ~6.3 |  | 
2 | CC1=C(/C=C/C(C)=C/C=C/C(C)=C/CO)C(C)(C)CCC1 [retinol, Retinol] |  | ≥ 10000 | only little, if any, cytotoxicity
